Assay results from EP1857450A1, “Novel enantiomeric compounds for treatment of cardiac arrhythmias and methods of use” (Aryx Therapeutics, priority 1999, dated 2001).

Assays:
anesthetized rats = assay: Anti-arrhythmic activity in anesthetized rats (benzene/adrenaline challenge, EKG recording); assay type: in vivo, Male Sprague-Dawley rats; details: for protection against tachyarrhythmia (increased heart rate) produced by adrenaline: potency: drug administered from time 0 to time 120 minutes; for PR interval / QRS interval / QT interval / Heart rate (beats/minute) / Inhibition of tachycardia / Number of VPB / Inhibition of VPB: isolated enantiomer as compared to the respective racemate; for PR interval / QRS interval / QT interval: EKG; for Number of VPB / Inhibition of VPB: benzene/adrenaline challenge; for Inhibition of VPB: 4 mg/kg i.v. then 12 mg/kg/h for 2 hours; for activity against VPB at the end of the washout period: time 180 min; for inhibition of the formation of ventricular premature beats (VPB): whole period of drug administration (time 0 to 120 min); for time at which activity against VPB is lost: drug administration time 0 to 120 min
Description: Male Sprague-Dawley rats with body weights of 410 ± 30 g (Harlan Sprague Dawley Inc., Indianapolis, IN), were anesthetized with sodium pentobarbital (50 mg/kg i.p. - Butler Co., Columbus, OH). The skin from the neck area was removed and the jugular veins on both sides were cleared of connective tissue. Both jugular veins and the left carotid artery were isolated, and the latter tied up cranially with a surgical silk (ETHICON 4-0, Ethicon Inc., Australia). A plastic catheter ([…] 19ga, Vecton Dickinson, Sandy, UT), filled with a solution containing 10% sodium heparin (Elkins-Sinn Inc., Cherry Hill, NJ) in normal saline (100 U/ml sodium heparin), was introduced into the artery and fixed with surgical silk.
The catheter was connected to a pressure transducer (OHMEDA P23-XL, Ohmeda Medical Devices Division Inc., Madison, WI), filled with the same heparinized 0.9% NaCl solution, to register beat-to-beat arterial pressure. Needle electrodes were inserted s.c., and together with the pressure transducer, were joined to a GOULD TA 2000 recorder. Leads II, aVF and intraarterial blood pressure were monitored simultaneously throughout the experiments and recorded at certain intervals at 50 and 200 mm/sec paper speed.
The surgery was completed with an incision on the trachea where a short plastic tubing was placed and the animal was connected to a rodent-model ventilator (HARVARD Model 683, Harvard Apparatus, Inc., Holliston, MA). The animals were ventilated in a controlled way, depending on their spontaneous breathing frequency (55-75/min).
Drug administrations were carried out through i.v. catheters (TERUMO 24 GA*3/4", Terumo Medical Corp., Elkton, MD) inserted into both jugular veins. The left side was used for drug infusions by means of a syringe pump (SAGE INSTRUMENTS, Model 341B, Orion Res. Inc., Boston, MA), and the right side was used for adrenaline injections. The experiments were started after at least 15 minutes of stabilization. Benzene/adrenaline challenges were performed as follows: the respirator inlet was connected to a 50-ml bubbler half-full with benzene (Fisher Scientific, Fair Lawn, NJ) so that the inspired air was saturated with benzene vapor. The animal was ventilated with benzene vapor for two minutes. The tidal volume was typically 1 ml/100g of animal. During the last 30 seconds of benzene ventilation, 10 µg/kg adrenaline solution (in 0.9% NaCl) was injected into the right jugular vein. […] These arrhythmias could be elicited repeatedly. After three control VTs (at -30, -20 and -10 minutes), the test compounds were injected slowly during 30 seconds at a dose of 4 mg/kg i.v., immediately followed by a slow infusion of 12 mg/kg/h for 2 hours. The flow rate during the infusion period was 1 ml/h.
There were 5 rats per test compound and each animal served as its own control. The ability of the different drugs to suppress arrhythmias was tested against repeated benzene/adrenaline challenges at 5, 15, 30, 45, 60, 90, 120 (end of drug infusion), 135, 150, 165 and 180 minutes after the i.v. bolus injection. The amplitudes of the systolic arterial pressure and diastolic arterial pressure […] with the help of a pressure-amplitude calibration curve. Heart rate, number of ventricular complexes during the occurrence of VTs and VPBs, and certain ECG parameters (PR, QRS, QT durations and RR cycle lengths in msec) were also recorded and measured manually. At each time-point, 3-5 cycles were measured and the average values were entered into EXCEL Windows 97. The average and standard deviation for the five experimental animals per compound were calculated.

[1] = assay type: in vitro ADME; details: human
Description: Venous blood (60 ml) was collected in heparinized 15-ml Vacutainer® tubes from the forearm of five human volunteers. Each tube contained 1,000 units of heparin sodium salt. The blood was immediately centrifuged at 2,000 g for 10 minutes and the plasma was collected. Immediately after collection, the plasma was divided into 2-ml aliquots in borosilicate glass tubes (5-ml capacity) capped with a plastic stopper. The tubes were then equilibrated in a 37°C-water bath for at least 15 minutes before the test samples were added.
Stock solutions were prepared by dissolving 25 µmoles (about 18 mg) of each of the test compounds in 10 ml of deionized water. To each of the glass tubes containing 2 ml of fresh plasma, equilibrated at 37°C, was added 40 µl of the stock solutions (one test compound per tube). The plasma/stock solutions were then mixed. Samples (250 µl) were collected at time 0 (immediately after mixing test compounds in plasma) and then at 30, 60, 90, 120, 180, 240, and 300 minutes. The test tubes were capped, to avoid concentration due to evaporation, and left in the 37°C bath during the entire experiment. Each aliquot was immediately introduced into a 1.5-ml microfuge tube containing 20 µl of a 0.01% solution of diethyl paranitrophenylphosphate (paraoxon) in ethanol in order to inhibit esterase activity. The tubes were then capped and vortexed, then kept at -20°C until analysis. The samples were thawed and mixed with 750 µl of a 0.1 % solution of trifluoroacetic acid (TFA) in acetonitrile, vortexed for thorough mixing, and then centrifuged at 12,000 g for 15 minutes. The supernatant was collected for injection in the HPLC system.
The HPLC mobile phase consisted of acetonitrile and water containing 0.1% TFA and 400 mg/L benzyltriethylammonium chloride (BTEAC) in the following proportions and flow rates: 85% acetonitrile and 15% water at 2.0 ml/min. The detection wavelength was set at 242 nm, and the injected volume was 100 µL. The HPLC peaks were recorded, and the integrated values were plotted against time using the SIGMAPLOT software version 4.0 for WINDOWS. The resulting curves were fitted to a first-order exponential decay equation from which hydrolysis half-lives were calculated.

Structure (SMILES) | protection against tachyarrhythmia (increased heart rate) produced by adrenaline: potency (anesthetized rats) | duration of effect on tachycardia (anesthetized rats; adrenaline injection) | PR interval (anesthetized rats) | QRS interval (anesthetized rats) | QT interval (anesthetized rats) | Heart rate (beats/minute) (anesthetized rats; adrenaline injection) | Inhibition of tachycardia (anesthetized rats; adrenaline injection) | Number of VPB (anesthetized rats) | Inhibition of VPB (anesthetized rats) | activity against VPB at the end of the washout period (anesthetized rats) | inhibition of the formation of ventricular premature beats (VPB) (anesthetized rats; benzene vapors and adrenaline) | Plasma half-life [1] | activity against VPB of the racemate relative to the enantiomers (anesthetized rats; benzene vapors and adrenaline) | time at which activity against VPB is lost (anesthetized rats; benzene vapors and adrenaline) | effects on the PR segment of the EKG recording (Class-IV activity): potency (anesthetized rats; rat, in vivo) | effects on the QT segment of the EKG recording (Class-III properties): potency (anesthetized rats; rat, in vivo)
CCN(CC)CCOc1c(I)cc(C(=O)c2c(CC(=O)OC(C)C(C)C)oc3ccccc23)cc1I (stereo not drawn) [ATI-2055] | inhibits the tachycardia |  |  |  |  |  |  |  |  |  |  |  |  |  |  | 
CCN(CC)CCOc1c(I)cc(C(=O)c2c(CC(=O)O[C@H](C)C(C)C)oc3ccccc23)cc1I [Compound R-2055, (R)-(3-Methyl)-2butyl 2-[3-(3,5-diiodo-4-(2-diethylaminoethyloxy)benzoyl)]benzo-furaneacetate] |  | longer-lasting effect than S-2055 | shorter | longer | no change | lower | longer | lower | longer | still retained part of its activity | totally inhibited the formation of ventricular premature beats | 11.7 h |  |  |  | 
CC[C@H](C)OC(=O)Cc1oc2ccccc2c1C(=O)c1cc(I)c(OCCN(CC)CC)c(I)c1 [ATI-2042] | very good protection against this tachyarrhythmia |  |  |  |  |  |  |  |  |  |  |  |  |  |  | 
CC[C@H](C)OC(=O)Cc1oc2ccccc2c1C(=O)c1cc(I)c(OCCN(CC)CC)c(I)c1 [R,S-2042] | the least potent and shortest acting |  |  |  |  |  |  |  |  |  |  |  | even less active than either the R- or the S-isomer |  |  | 
CCN(CC)CCOc1c(I)cc(C(=O)c2c(CC(=O)O[C@@H](C)C(C)C)oc3ccccc23)cc1I [Compound S-2055, (S) - (3 - Methyl) - 2 butyl 2-[3-(3,5-diiodo-4-(2-diethylaminoethyloacy)benzoyl)]benzo-furaneacetate] |  |  | shorter | longer | no change | lower | longer | lower | longer | completely inactive |  | 8.8 h |  | ~40 min |  | 
CC[C@H](C)OC(=O)Cc1oc2ccccc2c1C(=O)c1cc(I)c(OCCN(CC)CC)c(I)c1 [Compound S-2042, (S)-sec-Butyl 2-[3-(3,5-diiodo-4-(2-diethylaminoethytoxy)benzoyl)]benzofurane-acetate] | more potent and longer acting then R-2042 |  | longer | longer | longer | lower | longer | lower | longer | still retained part of its activity | totally inhibited the formation of ventricular premature beats | 7.3 h |  |  | much more potent than R-2042 and the racemate R,S-2042 | the most potent and the longest acting
CC[C@@H](C)OC(=O)Cc1oc2ccccc2c1C(=O)c1cc(I)c(OCCN(CC)CC)c(I)c1 [Compound R-2042, (R)-sec-Butyl 2-[3-(3,5-diiodo-4-(2-diethylaminoethyloxy)benzoyl)]benzofurane-acetate] |  |  | shorter | no change | no change | lower | longer | lower | longer | completely inactive |  | 5.0 h |  | ~100 min |  | 
